Test results published in patent US9855220B2, “Methods of treating pancreatic cancer” (priority 2013, dated 2018).

Legend:
[1] = test system: patients with locally advanced pancreatic cancer; details: cited from earlier work
[2] = test system: patients with metastatic adenocarcinoma of the pancreas; type: in vivo
Excerpt: (§1) Patients who had not experienced disease progression were followed with regularly scheduled spiral CT/MRI scans every 8 weeks in both arms. Patients were followed for survival until death or study closure.

[3] = test system: patients with metastatic adenocarcinoma of the pancreas; test: MPACT phase 3 study: overall survival; type: in vivo, human; details: for median overall survival: intent-to-treat population; for Median OS 95% CI (months): intent-to-treat
Excerpt: as §1
The 1:1 randomization was stratified by: (1) Karnofsky performance status (PS) (70-80 versus 90-100); (2) Region (Australia, North America, Eastern/Western Europe); (3) Presence of liver metastasis (Yes vs. No).
(§2) The primary efficacy endpoint was overall survival (OS). Secondary efficacy endpoints were progression-free survival (PFS) (measured by blinded, independent radiology assessments done at 8 weeks), objective tumor response according to Response Evaluation Criteria in Solid Tumors (RECIST v. 1.0) based on Spiral computed tomography (CT) scans/magnetic resonance imaging (MRI). Other endpoints included were progression-free survival and objective response rate (ORR) by investigator review, disease control rate (DCR), time to failure (TTF), and safety/tolerability by National Cancer Institute Common Terminology Criteria for Adverse Events v. 3.0 (NCI CTCAE).
(§3) The sample size was increased prior to the interim analysis to increase the power from 80% to 90% (842 patients, 608 events) to detect a hazard ratio (HR) of 0.769 (2-sided α:0.049). 1 interim survival analysis was planned for futility. The intent-to-treat (ITT) population was evaluated for efficacy, the treated population for safety. Treatment differences in overall survival and progression-free survival were tested using stratified log-rank; objective response rates were tested using the chi-squared test.

[4] = test system: patients with metastatic adenocarcinoma of the pancreas; test: MPACT phase 3 study: progression-free survival (independent radiological review, investigator review); type: in vivo, human; details: for Progression-free rate (%): independent radiological review
Method: (§4) The primary efficacy endpoint was overall survival (OS). […] 3.0 (NCI CTCAE).
(§5) 1 interim survival analysis was planned for futility.
(§6) Study endpoints were determined by analyzing the following criteria: (1) changes in serum CA 19-9 levels; (2) changes in plasma SPARC (secreted protein, acidic and rich in cysteine) levels; (3) time and duration of response (using RECIST v. 1.0); (4) disease control rate based on objective response or stable disease ≧16 weeks; (5) time to treatment failure; (6) progression-free survival and overall response rate by investigator; and (7) tumor response by PET scans using EORTC criteria and blinded radiology assessments. When assessing study endpoints, researchers examined correlations between objective tumor response as determined by CT and PET scans, molecular marker expression and efficacy, and objective tumor response as determined by PET, progression-free survival, CA 19-9 levels, SPARC levels and overall survival.

[5] = test system: patients with metastatic adenocarcinoma of the pancreas; test: MPACT phase 3 study: time to treatment failure; type: in vivo, human
Method: as §4, §6

pancreatic cancer = details: in vivo; cited from earlier work
[6] = test system: patients with metastatic adenocarcinoma of the pancreas
Excerpt: as §1, §2, §3

[7] = test system: patients with metastatic adenocarcinoma of the pancreas; test: MPACT phase 3 study: objective tumor response and disease control rate (RECIST v. 1.0); type: in vivo, human
Method: as §4, §5, §6

[8] = number of patients (% of arm), N = 431 vs N = 430
[9] = independent radiological review
[10] = treated population, N = 421 vs N = 402
[11] = best response by blinded assessment
[12] = best response by blinded assessment / independent review

O=c1[nH]cc(F)c(=O)[nH]1 [5-FU, 5-fluororuracil]
median overall survival [1]: 4.2 months | median time to disease progression [1]: 0.9 months

Nc1ccn([C@@H]2O[C@H](CO)[C@@H](O)C2(F)F)c(=O)n1 [Gemcitabine, gemcitabine]
Patients with ≧1 Dose Reduction, %: gemcitabine ([2]; gemcitabine component): 33% | Reason for Therapy Discontinuation: Adverse Events [2, 8]: 73 (17%) | Reason for Therapy Discontinuation: Adverse Events Related to Study Drug [2, 8]: 29 (7%) | Reason for Therapy Discontinuation: Progressive Disease [2, 8]: 245 (57%) | Patients Died, % ([3]; ITT): (83%) | Median OS, sensitivity analysis ([3]; censor at time of 2nd line therapy): 6.8 Months | median overall survival [3]: 6.7 (6.01-7.23) months | median overall survival ([3]; listed as gemcitabine): 6.7 months | Median OS 95% CI (months) ([3]; subgroup Geographic Region: Eastern Europe): 5.9 (4.67, 7.46) months | Median OS 95% CI (months) ([3]; subgroup Geographic Region: North America): 6.8 (6.01, 7.52) months | Median OS 95% CI (months) ([3]; subgroup Geographic Region: Western Europe): 6.9 (5.09, —)^ months | Median OS 95% CI (months) ([3]; subgroup Pancreatic Cancer Primary Location: Head): 6.5 (5.55, 7.29) months | Median OS 95% CI (months) ([3]; subgroup Pancreatic Cancer Primary Location: Other): 6.9 (5.98, 7.52) months | % survival ([3]; time point 6 month): 55% | % survival ([3]; time point 9 month): 36% | % survival ([3]; time point 12 month (1-year survival rate)): 22% | % survival ([3]; time point 18 month): 9% | % survival ([3]; time point 24 month (2-year survival rate)): 4% | N/Events, PFS by independent radiological review ([4]; ITT): 430/265 | Median Progression-Free Survival by independent radiological review ([4]; ITT population): 3.7 months | Progression-free rate (%) ([4]; at 6 month): 25% | Progression-free rate (%) ([4]; at 9 month): 14% | Progression-free rate (%) ([4]; at 12 month): 9% | Progression-free rate (%) ([4]; at 15 month): 9% | Median Progression-Free Survival by investigator review ([4]; in vivo): 3.5 months | N/Events, PFS by investigator review ([4]; in vivo): 430/348 | median overall survival [1]: 5.7 months | median time to disease progression [1]: 2.1 months | Median TTF [5, 9]: 3.6 months | Patients with Treatment Failure, % [5, 9]: 94% | Patients Censored, % ([5]; time to treatment failure analysis): 6% | median overall survival (pancreatic cancer): 6.0 months | median progression free survival (pancreatic cancer): 3.5 months | Febrile Neutropenia (any grade), % ([6]; human, in vivo): 1% | Grade ≧3 Anemia, % ([6]; human, in vivo): 12% | Grade ≧3 Diarrhea, % ([6]; human, in vivo): 2% | Grade ≧3 Fatigue, % ([6]; human, in vivo): 7% | Grade ≧3 Leukopenia, % ([6]; human, in vivo): 16% | Grade ≧3 Neuropathy, Time to Improvement by 1 grade, median ([6]; human, in vivo): 29 days | Grade ≧3 Neuropathy, Time to Onset, median ([6]; human, in vivo): 113 days | Grade ≧3 Neutropenia, % ([6]; human, in vivo): 27% | Grade ≧3 Peripheral neuropathy, % ([6]; human, in vivo): <1% | Grade ≧3 Thrombocytopenia, % ([6]; human, in vivo): 9% | Myelosuppression: ANC, NCI CTCAE Grade 3 ([6]; human, in vivo): 82 (21) n (%) | Myelosuppression: ANC, NCI CTCAE Grade 4 ([6]; human, in vivo): 21 (5) n (%) | Myelosuppression: Hemoglobin, NCI CTCAE Grade 3 ([6]; human, in vivo): 42 (11) n (%) | Myelosuppression: Hemoglobin, NCI CTCAE Grade 4 ([6]; human, in vivo): 6 (2) n (%) | Myelosuppression: Platelet Count, NCI CTCAE Grade 3 ([6]; human, in vivo): 28 (7) n (%) | Myelosuppression: Platelet Count, NCI CTCAE Grade 4 ([6]; human, in vivo): 8 (2) n (%) | Subjects with at least one AE with Action of Study Drug Permanently Discontinued ([6]; human, in vivo): 95 (24%) n (%) | Treatment Emergent AEs Resulting in Treatment Discontinuation: Blood & Lymphatic ([6]; human, in vivo): 16 (4%) n (%) | Treatment Emergent AEs Resulting in Treatment Discontinuation: Gastrointestinal disorders ([6]; human, in vivo): 22 (5%) n (%) | Treatment Emergent AEs Resulting in Treatment Discontinuation: General Disorders/Administration Site Condition ([6]; human, in vivo): 18 (4%) n (%) | Treatment Emergent AEs Resulting in Treatment Discontinuation: Infections and infestations ([6]; human, in vivo): 11 (3%) n (%) | Treatment Emergent AEs Resulting in Treatment Discontinuation: Nervous System ([6]; human, in vivo): 7 (2%) n (%) | Treatment Emergent AEs Resulting in Treatment Discontinuation: Respiratory, Thoracic and mediastinal disorders ([6]; human, in vivo): 15 (4%) n (%) | Treatment-Emergent Grade 3 or Higher AE: Abdominal pain ([6]; human, in vivo): 32 (8%) | Treatment-Emergent Grade 3 or Higher AE: Anemia ([6]; human, in vivo): 32 (8%) | Treatment-Emergent Grade 3 or Higher AE: Asthenia ([6]; human, in vivo): 17 (4%) | Treatment-Emergent Grade 3 or Higher AE: Dehydration ([6]; human, in vivo): 10 (2%) | Treatment-Emergent Grade 3 or Higher AE: Diarrhea ([6]; human, in vivo): 6 (1%) | Treatment-Emergent Grade 3 or Higher AE: Fatigue ([6]; human, in vivo): 37 (9%) | Treatment-Emergent Grade 3 or Higher AE: Leukopenia ([6]; human, in vivo): 15 (4%) | Treatment-Emergent Grade 3 or Higher AE: Nausea ([6]; human, in vivo): 14 (3%) | Treatment-Emergent Grade 3 or Higher AE: Neutropenia ([6]; human, in vivo): 85 (21%) | Treatment-Emergent Grade 3 or Higher AE: Peripheral neuropathy ([6]; human, in vivo): 3 (1%) | Treatment-Emergent Grade 3 or Higher AE: Pulmonary Embolism ([6]; human, in vivo): 26 (6%) | Treatment-Emergent Grade 3 or Higher AE: Thrombocytopenia ([6]; human, in vivo): 33 (8%) | Treatment-Emergent Grade 3 or Higher AE: Vomiting ([6]; human, in vivo): 15 (4%) | Pt with at least 1 AE leading to death, % ([6]; treated population): 4% | Subject with at Least 1 Treatment Related AE with Outcome of Death [6, 10]: 18 (4%) n (%) | Treatment Emergent AEs with Outcome of Death: Cardiac Disorders [6, 10]: 3 (1%) n (%) | Treatment Emergent AEs with Outcome of Death: Gastrointestinal disorders [6, 10]: 3 (1%) n (%) | Treatment Emergent AEs with Outcome of Death: General disorders and administration site conditions [6, 10]: 3 (1%) n (%) | Treatment Emergent AEs with Outcome of Death: Hepatobiliary disorders [6, 10]: 1 (<1%) n (%) | Treatment Emergent AEs with Outcome of Death: Infections and infestations [6, 10]: 3 (1%) n (%) | Treatment Emergent AEs with Outcome of Death: Neoplasm Progression [6, 10]: 2 (<1%) n (%) | Treatment Emergent AEs with Outcome of Death: Nervous system disorders [6, 10]: 2 (<1%) n (%) | Treatment Emergent AEs with Outcome of Death: Renal and urinary disorders [6, 10]: 1 (<1%) n (%) | Treatment Emergent AEs with Outcome of Death: Respiratory, thoracic and mediastinal disorders [6, 10]: 3 (1%) n (%) | Not evaluable, % [7, 11]: 39% | Progressive Disease, % [7, 11]: 26% | Stable Disease, % [7, 11]: 28% | Complete Response, % [7, 12]: 0% | Partial Response, % [7, 12]: 7% | ORR, blinded (independent radiological) assessment ([7]; confirmed complete or partial response, ITT): 7% | ORR, investigator assessment ([7]; in vivo): 8% | Stable Disease ≧16 weeks, % ([7]; independent review): 26% | DCR (disease control rate) by independent review ([7]; objective response or stable disease ≧16 weeks): 33%
